The target of series [1] is hERG (Homo sapiens, UniProt Q12809).
Series [2] in a line: FAERS disproportionality analysis. The note with it: for EB05 TdP / EB05 VT / EB05 VA: FAERS Nov 1997 to March 31, 2015, EB05 > 2 = signal; for EB05 TdP: torsades de pointes; for EB05 VT: ventricular tachycardia; for EB05 VA: ventricular arrhythmia; for EB05: Table 2, values correspond to EB05 TdP of Table 1.
For series [3] the following is noted: Table 1; cited from earlier work.
The conditions of series [4]: cited from earlier work; for CredibleMeds Classification: Table 1, as of last access May 22, 2018.
Series [5] can be described thus: Incidence of cardiac dysrhythmia in Truven Health MarketScan claims data. The note with it: for CD incidence / Incidence Rate per 1,000 Years: Table 2, MarketScan 2009-2014; for CD incidence: cardiac dysrhythmia cases; for Incidence Rate per 1,000 Years: cardiac dysrhythmia; for Delta from Background Rate: in vivo. The series is classed as in vivo, human.

The structures appear in SMILES notation.

Chain of hERG (Q12809 whole entry): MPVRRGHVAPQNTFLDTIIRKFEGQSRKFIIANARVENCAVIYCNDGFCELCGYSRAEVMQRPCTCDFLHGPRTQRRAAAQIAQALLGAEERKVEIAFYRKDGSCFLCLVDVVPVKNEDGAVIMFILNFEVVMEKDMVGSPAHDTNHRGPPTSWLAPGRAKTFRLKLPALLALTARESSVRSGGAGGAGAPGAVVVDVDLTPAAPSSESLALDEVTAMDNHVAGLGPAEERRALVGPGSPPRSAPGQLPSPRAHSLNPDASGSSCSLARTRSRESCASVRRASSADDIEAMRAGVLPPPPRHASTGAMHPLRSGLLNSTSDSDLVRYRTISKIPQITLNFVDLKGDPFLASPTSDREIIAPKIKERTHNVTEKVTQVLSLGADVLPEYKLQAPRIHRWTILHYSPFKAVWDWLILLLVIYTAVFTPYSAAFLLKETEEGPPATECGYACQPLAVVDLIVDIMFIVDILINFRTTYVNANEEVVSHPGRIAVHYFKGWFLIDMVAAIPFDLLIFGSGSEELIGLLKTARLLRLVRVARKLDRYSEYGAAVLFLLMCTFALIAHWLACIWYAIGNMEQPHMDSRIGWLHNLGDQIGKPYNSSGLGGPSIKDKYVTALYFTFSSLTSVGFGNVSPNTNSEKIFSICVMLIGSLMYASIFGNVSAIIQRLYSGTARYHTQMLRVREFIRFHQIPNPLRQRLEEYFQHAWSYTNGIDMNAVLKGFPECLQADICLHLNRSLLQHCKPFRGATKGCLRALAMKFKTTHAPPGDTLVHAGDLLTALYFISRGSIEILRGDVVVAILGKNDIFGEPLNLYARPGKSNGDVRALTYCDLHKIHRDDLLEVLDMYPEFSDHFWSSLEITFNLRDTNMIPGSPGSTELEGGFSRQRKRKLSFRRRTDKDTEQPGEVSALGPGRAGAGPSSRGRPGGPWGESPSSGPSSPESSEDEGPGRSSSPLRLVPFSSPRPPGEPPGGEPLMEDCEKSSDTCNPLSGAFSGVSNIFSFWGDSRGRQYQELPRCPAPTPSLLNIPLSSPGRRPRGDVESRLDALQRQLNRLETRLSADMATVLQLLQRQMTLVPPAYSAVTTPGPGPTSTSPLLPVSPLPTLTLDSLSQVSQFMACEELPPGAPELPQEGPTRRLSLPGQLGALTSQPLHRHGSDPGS

On to `CCOC(=O)C1=C(C)NC(C)=C(C(=O)OC)C1c1cccc([N+](=O)[O-])c1` (centres unmarked) [NITRENDIPINE], for which the “hERG IC50/Free Cmax Ratio” value in series [1] was 50345. Also, in series [2], the “EB05 TdP” value was determined as 0.618 and the “EB05 VT” value amounted to 0.228. In series [3], the “CiPA Classification” value was “very low”.

`COc1cc2c(Nc3ccc(Br)cc3F)ncnc2cc1OCC1CCN(C)CC1` [VANDETANIB]: the “EB05 TdP” value in series [2] is listed as 0.546. In addition, in series [3], the “CiPA Classification” value was “high”. Also, the “CredibleMeds Classification” value in series [4] is recorded as “risk of TdP”.

For the compound `COc1ccccc1OCC(O)CN1CCN(CC(=O)Nc2c(C)cccc2C)CC1` (centres unmarked) [RANOLAZINE], in series [2], the “EB05 TdP” value is 22.444, the “EB05 VA” value is reported as 0.205 and the “EB05 VT” value is recorded as 4.375. In series [3], the “CiPA Classification” value is “very low”. Further, in series [4], the “CredibleMeds Classification” value is on record as “conditional risk of TdP”.

For the compound `CC(C)COCC(CN(Cc1ccccc1)c1ccccc1)N1CCCC1` (centres unmarked) [BEPRIDIL], in series [2], the “EB05 TdP” value was found to be 81.663, the “EB05 VA” value is on record as 5.155 and the “EB05 VT” value is 38.276. The “CiPA Classification” value in series [3] is on record as “high”. In addition, the “CredibleMeds Classification” value in series [4] is reported as “risk of TdP”.

Take `Cc1nc2n(c(=O)c1CCN1CCC(c3noc4cc(F)ccc34)CC1)CCCC2` [RISPERIDONE]: in series [2], the “EB05 TdP” value is 1.257, the “EB05 VA” value came out at 0.543, the “EB05 VT” value worked out at 0.706 and the EB05 was 1.26. Besides, the “CiPA Classification” value in series [3] is “intermediate”. In addition, in series [4], the “CredibleMeds Classification” value is “possible risk of TdP”. In series [4] (Table 2), the CredibleMeds result is “possible risk of TdP”. Besides, in series [5], the CD incidence is 4,066, the “Incidence Rate per 1,000 Years” value is listed as 18.47 per 1,000 Years and the “Delta from Background Rate” value is −4.53.

With `CC[C@H]1OC(=O)[C@H](C)[C@@H](O[C@H]2C[C@@](C)(OC)[C@@H](O)[C@H](C)O2)[C@H](C)[C@@H](O[C@@H]2O[C@H](C)C[C@H](N(C)C)[C@H]2O)[C@](C)(OC)C[C@@H](C)C(=O)[C@H](C)[C@@H](O)[C@]1(C)O` [CLARITHROMYCIN], the “hERG IC50/Free Cmax Ratio” value in series [1] amounted to 77.41. In series [2], the “EB05 TdP” value was 7.69, the “EB05 VA” value came to 1.898 and the “EB05 VT” value worked out at 3.016. Besides, the “CiPA Classification” value in series [3] is recorded as “intermediate”. In addition, in series [4], the “CredibleMeds Classification” value is given as “risk of TdP”.

As for `CCCCCCCN(CC)CCCC(O)c1ccc(NS(C)(=O)=O)cc1` (centres unmarked) [IBUTILIDE], in series [2], the “EB05 TdP” value amounted to 218.45, the “EB05 VA” value came to 2.901 and the “EB05 VT” value is reported as 101.022. Besides, in series [3], the “CiPA Classification” value is “high”. Also, the “CredibleMeds Classification” value in series [4] is reported as “risk of TdP”.

With `CN1CCN(CCCCN2C(=O)CN(/N=C/c3ccc(-c4ccc(Cl)cc4)o3)C2=O)CC1` [AZIMILIDE], in series [1], the “hERG IC50/Free Cmax Ratio” value was 11.50. In series [2], the “EB05 TdP” value is reported as 94.351 and the “EB05 VT” value stood at 1.381. The “CiPA Classification” value in series [3] is on record as “high”.

With `Cc1cccc(C)c1OCC(C)N` (centres unmarked) [MEXILETINE], in series [1], the “hERG IC50/Free Cmax Ratio” value amounted to 130.11. In series [2], this compound came in with an EB05 of 2.65. The “CiPA Classification” value in series [3] is listed as “very low”. In addition, in series [5], the CD incidence is 1,250, the “Incidence Rate per 1,000 Years” value is given as 280.45 per 1,000 Years and the “Delta from Background Rate” value was 257.45.

In the case of `COc1cc(N)c(Cl)cc1C(=O)NC1CCN(CCCOc2ccc(F)cc2)CC1OC` (centres unmarked) [CISAPRIDE], in series [2], the “EB05 TdP” value turned out to be 30.654, the “EB05 VA” value is 5.117 and the “EB05 VT” value came out at 21.801. Moreover, in series [3], the “CiPA Classification” value is given as “intermediate”. Further, in series [4], the “CredibleMeds Classification” value is recorded as “risk of TdP”.

The values above are taken from paper PMC7659582 (Cell Reports Medicine, 2020).
